We go through 13 compounds from patent publication US8378104B2 (OSI Pharmaceuticals, LLC, priority 2010, dated 2013).

Some results are limits rather than exact numbers.

The target in the assay is T1, TAK1-TAB1 fusion protein (Homo sapiens, UniProt O43318).
T1 construct: purchased Carna
T1 sequence (O43318 with tags, fused parts or gaps limits assumed): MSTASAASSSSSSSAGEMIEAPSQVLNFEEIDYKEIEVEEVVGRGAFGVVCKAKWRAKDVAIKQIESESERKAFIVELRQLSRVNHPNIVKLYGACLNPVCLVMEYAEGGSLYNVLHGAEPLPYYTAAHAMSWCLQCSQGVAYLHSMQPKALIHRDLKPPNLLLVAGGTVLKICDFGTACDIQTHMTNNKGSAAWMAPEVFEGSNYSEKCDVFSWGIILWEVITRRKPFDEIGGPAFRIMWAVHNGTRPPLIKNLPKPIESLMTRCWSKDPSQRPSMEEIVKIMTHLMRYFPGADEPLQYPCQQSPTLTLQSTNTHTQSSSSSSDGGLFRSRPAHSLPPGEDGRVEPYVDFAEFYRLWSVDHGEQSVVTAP
Description: TAK1 biochemical assay (AlphaScreen, GST-MAP2K7 substrate). As to conditions: TAK1-TAB1 fusion protein, GST-MAP2K7 substrate; read-out: mean TAK1 IC50 (Col. A). A general note: In Alpha technology, singlet oxygen from a donor bead excites a nearby acceptor bead.
`Nc1ncc(-c2cc(C(=O)O)cs2)c2cc(-c3csc4cnccc34)oc12` [Example 379, 5-(7-amino-2-thieno[2,3-c]pyridin-3-yl-furo[2,3-c]pyridin-4-yl)-thiophene-3-carboxylic acid]: the IC50 (usually the concentration that inhibits the measured activity by half) was in the range of 1000 to 10000 nM.

As to `Nc1ncc(-c2cnn(C3CCNCC3)c2)c2cc(-c3cccc4c3Sc3ccccc3S4)oc12` [Example 35, 4-[1-(piperidin-4-yl)-1H-pyrazol-4-yl]-2-(thianthren-1-yl)furo[2,3-c]pyridine-7-amine], the 50% inhibitory concentration (IC50) was in the range of 1000 to 10000 nM.

`Cc1c(-c2cnc(N)c3oc(-c4csc5cnccc45)cc23)cnn1[C@@H]1C[C@@H](O)[C@@H](O)C1` [Example 312, rel-(1R,2S,4S)-4-[4-(7-amino-2-thieno[2,3-c]pyridin-3-yl-furo[2,3-c]pyridin-4-yl)-5-methyl-pyrazol-1-yl]-cyclopentane-1,2-diol]: the 50% inhibitory concentration (IC50) was in the range of 1000 to 10000 nM.

Consider `CC(=O)N1CCC(n2cc(-c3cnc(N)c4oc(-c5ccc(Oc6ccccc6)cc5)cc34)cn2)CC1` [Example 159, 1-(4-{4-[7-amino-2-(4-phenoxyphenyl)furo[2,3-c]pyridin-4-yl]-1H-pyrazol-1-yl}piperidin-1-yl)ethanone], for which the IC50 was more than 10000 nM.

Take `CN1CCC(n2cc(-c3cnc(N)c4oc(-c5cccc6ccsc56)cc34)cn2)CC1` [Example 57, 2-(1-benzothiophen-7-yl)-4-[1-(1-methylpiperidin-4-yl)-1H-pyrazol-4-yl]furo[2,3-c]pyridin-7-amine]: the half-maximal inhibitory concentration (IC50) was in the range of 1000 to 10000 nM.

As to `CC(=O)N1CCC(n2cc(-c3cnc(N)c4oc(-c5ccc(N)c(C#N)c5)cc34)cn2)CC1` [Example 104, 5-{4-[1-(1-acetylpiperidin-4-yl) 1H-pyrazol-4-yl]-7-aminofuro[2,3-c]pyridin-2-yl}-2-aminobenzonitrile], the IC50 was 1000 to 10000 nM.

Regarding `CC(=O)N1CCC(n2cc(-c3cnc(N)c4oc(-c5ccc6c(c5)CC(=O)N6)cc34)cn2)CC1` [Example 103, 5-{4-[1-(1-acetylpiperidin-4-yl)-1H-pyrazol-4-yl]-7-aminofuro[2,3-c]pyridin-2-yl}-1,3-dihydro-2H-indol-2-one], the IC50 was in the range of 1000 to 10000 nM.

For the compound `CC(=O)N1CCC(n2cc(-c3cnc(N)c4oc(-c5cccc(-c6ccccc6)c5)cc34)cn2)CC1` [Example 160, 1-(4-{4-[7-amino-2-(biphenyl-3-yl)furo[2,3-c]pyridin-4-yl]-1H-pyrazol-1-yl}piperidin-1-yl)ethanone], the IC50 was 1000 to 10000 nM.

On to `Cn1cc(-c2cnc(N)c3oc(-c4ccccc4)cc23)cn1` [Example 56, 4-(1-methyl-1H-pyrazol-4-yl)-2-phenylfuro[2,3-d]pyridin-7-amine], for which the IC50 is more than 10000 nM.

For the compound `CC(=O)N1CCC(n2cc(-c3cnc(N)c4oc(-c5cccc(C(N)=O)c5)cc34)cn2)CC1` [Example 122, 3-{4-[1-(1-acetylpiperidin-4-yl)-1H-pyrazol-4-yl]-7-aminofuro[2,3-c]pyridin-2-yl}benzamide], the concentration for half-maximal inhibition (IC50) fell in the range of 100 to 1000 nM.

With `CC(=O)N1CCC(n2cc(-c3cnc(N)c4oc(C5=CCCC5)cc34)cn2)CC1` [Example 153, 1-(4-{4-[7-amino-2-(cyclopent-1-en-1-yl)furo[2,3-c]pyridin-4-yl]-1H-pyrazol-1-yl}piperidin-1-yl)ethanone], the IC50 is 1000 to 10000 nM.

Consider `Nc1ncc(-c2cnn([C@H]3CC[C@H](O)CC3)c2)c2cc(-c3c(F)ccc4ncsc34)oc12` [Example 359, trans-4-{4-[7-amino-2-(6-fluoro-1,3-benzothiazol-7-yl)furo[2,3-c]pyridin-4-yl]-1H-pyrazol-1-yl}cyclohexanol], for which the IC50 is 1000 to 10000 nM.

Turning to `COc1ccccc1NCCC(=O)N1CCC(n2cc(-c3cnc(N)c4oc(-c5cccc6cnsc56)cc34)cn2)CC1` [Example 336, 1-{4-[4-(7-amino-2-benzo[d]iso-thiazol-7-yl-furo[2,3-c]pyridin-4-yl)-pyrazol-1-yl]-piperidin-1-yl}-3-(2-methoxy-phenyl-amino)-propan-1-one], the IC50 lay in the range of 100 to 1000 nM.
